ChEMBL document CHEMBL1148308, “Peptide-based inhibitors of the hepatitis C virus NS3 protease: structure-activity relationship at the C-terminal position” (J Med Chem, 2004)
Where a SMILES comes first, the peptide text is derived from it. [ ]: non-standard residue; d: D form. Hyp(2-Ph-quinolin-4-yl) = O=C(O)[C@@H]1C[C@@H](Oc2cc(-c3ccccc3)nc3ccccc23)CN1; Ac3c(1R,2S-2-vinyl) = C=C[C@@H]1C[C@]1(N)C(=O)O; Chg = N[C@H](C(=O)O)C1CCCCC1

Test: Inhibitory activity against the hepatitis C virus NS3 protease was determined
Set-up: species or system Hepacivirus hominis

Structure (SMILES) | IC50 [µM]
CC[C@H]1C[C@@]1(NC(=O)C1CC(OCc2cccc3ccccc23)CN1C(=O)[C@@H](NC(=O)[C@@H](NC(C)=O)C1CCCCC1)C(C)C)C(=O)O (single isomer, unassigned) | 32
CC(=O)N[C@H](C(=O)N[C@H](C(=O)N1CC(Oc2cc(-c3ccccc3)nc3ccccc23)CC1C(=O)NC1(C(=O)O)CC1)C(C)C)C1CCCCC1 (single isomer, unassigned) | 0.55
CC(=O)N[C@H](C(=O)N[C@H](C(=O)N1C[C@H](OCc2cccc3ccccc23)C[C@H]1C(=O)N[C@@]1(C(=O)O)C[C@@H]1C(C)C)C(C)C)C1CCCCC1 | 640
CCC[C@@H]1C[C@]1(NC(=O)C1CC(OCc2cccc3ccccc23)CN1C(=O)[C@@H](NC(=O)[C@@H](NC(C)=O)C1CCCCC1)C(C)C)C(=O)O (single isomer, unassigned) | 5.5
CC(=O)N[C@H](C(=O)N[C@H](C(=O)N1C[C@H](OCc2cccc3ccccc23)C[C@H]1C(=O)N[C@@]1(C(=O)O)C[C@@H]1Cc1ccccc1)C(C)C)C1CCCCC1 | 81
CC(=O)N[C@H](C(=O)N[C@H](C(=O)N1CC(OCc2ccccc2)CC1C(=O)N[C@@H](CS)C(=O)O)C(C)C)C1CCCCC1 (single isomer, unassigned) | 140
COc1ccc2c(OC3CC(C(=O)NC4(C(=O)O)CC4)N(C(=O)[C@@H](NC(=O)[C@@H](NC(C)=O)C4CCCCC4)C(C)C)C3)ccnc2c1 (single isomer, unassigned) | 0.85
CC(=O)N[C@H](C(=O)N[C@H](C(=O)N1CC(OCc2cccc3ccccc23)CC1C(=O)N[C@]1(C(=O)O)C[C@H]1C)C(C)C)C1CCCCC1 (single isomer, unassigned) | 22
C=C[C@@H]1C[C@]1(NC(=O)C1CC(OCc2ccccc2)CN1C(=O)[C@@H](NC(=O)[C@@H](NC(C)=O)C1CCCCC1)C(C)C)C(=O)O (single isomer, unassigned) | 9.7
C=C[C@@H]1C[C@]1(NC(=O)C1CC(Oc2ccnc3cc(OC)ccc23)CN1C(=O)[C@@H](NC(=O)[C@@H](NC(C)=O)C1CCCCC1)C(C)C)C(=O)O (single isomer, unassigned) | 0.029
CCC[C@H](NC(=O)C1CC(OCc2cccc3ccccc23)CN1C(=O)[C@@H](NC(=O)[C@@H](NC(C)=O)C1CCCCC1)C(C)C)C(=O)O (single isomer, unassigned) | 23
CC(=O)N[C@H](C(=O)N[C@H](C(=O)N1CC(OCc2cccc3ccccc23)CC1C(=O)NC1(C(=O)O)CC1)C(C)C)C1CCCCC1 (single isomer, unassigned) | 14
CCC[C@H]1C[C@@]1(NC(=O)C1CC(OCc2cccc3ccccc23)CN1C(=O)[C@@H](NC(=O)[C@@H](NC(C)=O)C1CCCCC1)C(C)C)C(=O)O (single isomer, unassigned) | 41

The remaining compounds from weak to strong by IC50, led by results:

IC50 [µM] | Structure (SMILES)
530 | CCC[C@H](NC(=O)C1CC(OCc2ccccc2)CN1C(=O)[C@@H](NC(=O)[C@@H](NC(C)=O)C1CCCCC1)C(C)C)C(=O)O (single isomer, unassigned)
330 | CC(=O)N[C@H](C(=O)N[C@H](C(=O)N1CC(OCc2ccccc2)CC1C(=O)NC1(C(=O)O)CC1)C(C)C)C1CCCCC1 (single isomer, unassigned)
310 | CCC1(CC)C[C@]1(NC(=O)C1CC(OCc2cccc3ccccc23)CN1C(=O)[C@@H](NC(=O)[C@@H](NC(C)=O)C1CCCCC1)C(C)C)C(=O)O (single isomer, unassigned)
180 | CC(=O)N[C@H](C(=O)N[C@H](C(=O)N1CC(OCc2cccc3ccccc23)CC1C(=O)N[C@@]1(C(=O)O)C[C@@H]1C)C(C)C)C1CCCCC1 (single isomer, unassigned)
90 | CC(=O)N[C@H](C(=O)N[C@H](C(=O)N1C[C@H](OCc2cccc3ccccc23)C[C@H]1C(=O)N[C@@]1(C(=O)O)C[C@@H]1CCc1ccccc1)C(C)C)C1CCCCC1
22 | CC(=O)N[C@H](C(=O)N[C@H](C(=O)N1C[C@H](OCc2cccc3ccccc23)C[C@H]1C(=O)N[C@]1(C(=O)O)C[C@H]1CCc1ccccc1)C(C)C)C1CCCCC1
14 | CC(=O)N[C@H](C(=O)N[C@H](C(=O)N1C[C@H](OCc2cccc3ccccc23)C[C@H]1C(=O)N[C@]1(C(=O)O)C[C@H]1Cc1ccccc1)C(C)C)C1CCCCC1
5.5 | CC(=O)N[C@H](C(=O)N[C@H](C(=O)N1C[C@H](OCc2cccc3ccccc23)C[C@H]1C(=O)N[C@]1(C(=O)O)C[C@H]1C(C)C)C(C)C)C1CCCCC1
4.8 | CC[C@@H]1C[C@]1(NC(=O)C1CC(OCc2cccc3ccccc23)CN1C(=O)[C@@H](NC(=O)[C@@H](NC(C)=O)C1CCCCC1)C(C)C)C(=O)O (single isomer, unassigned)
0.63 | C=C[C@@H]1C[C@]1(NC(=O)C1CC(OCc2cccc3ccccc23)CN1C(=O)[C@@H](NC(=O)[C@@H](NC(C)=O)C1CCCCC1)C(C)C)C(=O)O (single isomer, unassigned)
0.019 | C=C[C@@H]1C[C@]1(NC(=O)[C@@H]1C[C@@H](Oc2cc(-c3ccccc3)nc3ccccc23)CN1C(=O)[C@@H](NC(=O)[C@@H](NC(C)=O)C1CCCCC1)C(C)C)C(=O)O (Ac-[Chg]V[Hyp(2-Ph-quinolin-4-yl)][Ac3c(1R,2S-2-vinyl)]-OH)
